# Changes are numbered by the printed parent chain.
# Legend:
# β(1,4)-Gal-T1(Y289L) = molecular target: T1, β(1,4)-Gal-T1(Y289L) (Bos taurus, UniProt P08037, I205M/L206V/P187L/V158I/Y289L); test: Glycosyltransfer of UDP-galactosamine derivatives to trimmed trastuzumab with Gal-T1(Y289L) expressed in E. coli, mass spectral analysis; assay type: biochemical, bovine; details: trimmed trastuzumab 10 mg/mL, pH 8.0, 30° C. overnight, reduced sample
# T1 construct: made in house; host or cells: E. coli
# T1 sequence (P08037 1-402 V158I/P187L/I205M/L206V/Y289L): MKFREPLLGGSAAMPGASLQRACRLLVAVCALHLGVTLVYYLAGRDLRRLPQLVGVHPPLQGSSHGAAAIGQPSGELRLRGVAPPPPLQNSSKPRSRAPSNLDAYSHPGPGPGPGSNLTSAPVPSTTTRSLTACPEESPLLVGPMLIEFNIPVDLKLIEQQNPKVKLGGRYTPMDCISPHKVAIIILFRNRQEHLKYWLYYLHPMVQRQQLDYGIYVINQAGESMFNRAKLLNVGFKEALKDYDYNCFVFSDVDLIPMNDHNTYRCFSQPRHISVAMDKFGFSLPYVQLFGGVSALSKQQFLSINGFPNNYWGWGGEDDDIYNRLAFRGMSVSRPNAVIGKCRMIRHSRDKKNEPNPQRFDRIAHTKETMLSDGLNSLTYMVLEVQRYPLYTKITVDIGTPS
# Description: General Protocol for Glycosyltransfer of Galactose Derivative UDP-GalNAz 21-24 with Gal-T1(Y289L) (Expressed in E. coli).
# Enzymatic introduction of UDP-Gal derivatives 21-24 onto deglycosylated trastuzumab was effected with a mutant of bovine β(1,4)-galactosyltransferase [β(1,4)-Gal-T1(Y289L)] (expressed in E. coli). The deglycosylated trastuzumab (10 mg/mL) was incubated with the appropriate UDP-galactose derivative (0.4 mM) and β(1,4)-Gal-T1(Y289L) (1 mg/mL) in 10 mM MnCl2 and 25 mM Tris-HCl pH 8.0 for 16 hours at 30° C.
# Next, the functionalized trastuzumab was incubated with protein A agarose (40 μL per mg IgG) for 2 hours at 4° C. The protein A agarose was washed three times with PBS and the IgG was eluted with 100 mM glycine-HCl pH 2.7. The eluted IgG was neutralized with 1 M Tris-HCl pH 8.0 and concentrated and washed with PBS using an Amicon Ultra-0.5, Ultracel-10 Membrane (Millipore) to a concentration of 15-20 mg/mL.
# Trimmed trastuzumab (10 mg/mL, 3.3 nmol), obtained by Endo S treatment of trastuzumab, was incubated with UDP-galactosamine variant 21 (2.5 mM) and β(1,4)-Gal-T1(Y289L) (0.68 mg/mL, 45 μL) in 10 mM MnCl2 and 25 mM Tris-HCl pH 8.0 at 30° C. overnight.
# Trimmed trastuzumab (10 mg/mL, 1.3 nmol), obtained by Endo S treatment of trastuzumab, was incubated with UDP-galactosamine variant 22 (4 mM) and β(1,4)-Gal-T1(Y289L) (1.4 mg/mL, 10 μL) in 10 mM MnCl2 and 25 mM Tris-HCl pH 8.0 at 30° C. overnight. Mass spectral analysis of the reduced sample indicated the formation of the product (49750.9 Da, approximately 80% of total heavy chain), resulting from galactosamide furan-2-carboxyl acid transfer to core GlcNAc(Fuc) substituted trastuzumab heavy chain as shown in FIG. 9.
# Trimmed trastuzumab (10 mg/mL, 6.6 nmol), obtained by Endo S treatment of trastuzumab, was incubated with the 4-azido-3,5-difluorobenzoyl derivative of UDP-galactosamine (23, 7 mM) and β(1,4)-Gal-T1(Y289L) (2 mg/mL) in 10 mM MnCl2 and 25 mM Tris-HCl pH 8.0 at 30° C. overnight. Mass spectral analysis of the reduced sample indicated the formation of a one major product (49813 Da, approximately 90% of total heavy chain), resulting from transfer of 23 to core GlcNAc(Fuc)-substituted trastuzumab heavy chain.
# Trimmed trastuzumab (10 mg/mL, 1.3 nmol), obtained by Endo S treatment of trastuzumab, was incubated with UDP-galactosamine variant 24 (4 mM) and (3(1,4)-Gal-T1(Y289L) (1.4 mg/mL, 10 μL) in 10 mM MnCl2 and 25 mM Tris-HCl pH 8.0 at 30° C. overnight.
# Gal-T1(Y289M,C342T) = molecular target: T2, Gal-T1(Y289M,C342T) (Bos taurus, UniProt P08037, C342T/Y289M); test: Glycosyltransfer to trimmed trastuzumab with Gal-T1(Y289M,C342T) expressed in CHO; assay type: biochemical, bovine; details: trimmed trastuzumab 10 mg/mL; UDP derivative 5 mM; enzyme 1.0 mg/mL; pH 8.0, 30° C. overnight
# T2 construct: host or cells: CHO K1
# T2 sequence (P08037 74-402 V158I/P187L/I205M/L206V/Y289M/C342T): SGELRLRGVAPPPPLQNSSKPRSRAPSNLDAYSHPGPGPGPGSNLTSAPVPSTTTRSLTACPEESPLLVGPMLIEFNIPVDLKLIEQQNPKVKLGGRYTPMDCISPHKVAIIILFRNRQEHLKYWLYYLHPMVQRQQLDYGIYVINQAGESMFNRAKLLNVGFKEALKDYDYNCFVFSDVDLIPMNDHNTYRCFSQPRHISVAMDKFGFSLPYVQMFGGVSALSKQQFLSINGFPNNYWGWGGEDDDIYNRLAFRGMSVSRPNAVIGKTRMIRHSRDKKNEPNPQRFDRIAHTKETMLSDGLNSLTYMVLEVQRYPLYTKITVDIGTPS
# Description: (§1) A solution of 20 μg (modified) IgG was incubated for 1 hour at 37° C. with Fabricator™ (commercially available from Genovis, Lund, Sweden) (1.25 U/μL) in phosphate-buffered saline (PBS) pH 6.6 in a total volume of 10 μL. Fabricator™-digested samples were washed trice with milliQ using an Amicon Ultra-0.5, Ultracel-10 Membrane (Millipore) resulting in a final sample volume of approximately 40 μL. The Fc/2 fragment was analyzed by electrospray ionization time-of-flight (ESI-TOF) on a JEOL AccuTOF. Deconvoluted spectra were obtained using Magtran software.
# (§2) A set of Gal-T 1 mutants encoding residues 74-402 of bovine Gal-T 1 were transiently expressed in CHO K1 cells by Evitria (Zurich, Switzerland) which include the Gal-T1 single mutants Y289L (represented by SEQ ID NO: 26), Y289F (represented by SEQ ID NO: 27), Y289M (represented by SEQ ID NO: 28), Y289V (represented by SEQ ID NO: 29), Y289A (represented by SEQ ID NO: 30), and Y289G (represented by SEQ ID NO: 31), and the Gal-T1 double mutants Y289L,C342T (represented by SEQ ID NO: 32), and Y289M,C342T (represented by SEQ ID NO: 33). The mutants were purified using a cation exchange column (Source 15S HR16/10 column, GE Healthcare) as described above. Purified proteins were analyzed by SDS-PAGE. […]
# Gal-T1(Y289L,C342T) = molecular target: T3, Gal-T1(Y289L,C342T) (Bos taurus, UniProt P08037, C342T/Y289L); test: Glycosyltransfer to trimmed trastuzumab with Gal-T1(Y289L,C342T) expressed in CHO; assay type: biochemical, bovine; details: trimmed trastuzumab 10 mg/mL; UDP derivative 1 mM; enzyme 1.0 mg/mL; pH 8.0, 30° C. overnight
# T3 construct: host or cells: CHO K1
# T3 sequence (P08037 74-402 V158I/P187L/I205M/L206V/Y289L/C342T): T2 sequence (P08037 74-402 V158I/P187L/I205M/L206V/Y289M/C342T) with M216L
# Description: as §1, §2
# β4Gal-T1 = molecular target: T4, β4Gal-T1 (Bos taurus, UniProt P08037); details: native enzyme; cited from earlier work
# T4 sequence (P08037 1-402): T1 sequence (P08037 1-402 V158I/P187L/I205M/L206V/Y289L) with I158V, L187P, M205I, V206L, L289Y
# β4Gal-T1(Y289L) = molecular target: T5, β4Gal-T1(Y289L) (Bos taurus, UniProt P08037, Y289L); details: GlcNAc acceptor; cited from earlier work
# T5 sequence (P08037 1-402 Y289L): T1 sequence (P08037 1-402 V158I/P187L/I205M/L206V/Y289L) with I158V, L187P, M205I, V206L
# [1] = UDP derivative 4 mM, enzyme 1.4 mg/mL
compound,measurement,setting,value
"O=C(NC1C(OP(=O)(O)OP(=O)(O)OCC2OC(n3ccc(=O)[nH]c3=O)C(O)C2O)OC(CO)C(O)C1O)c1cccnc1 (stereo not shown) [Compound 21, 3-pyridylcarbonyl Derivative of UDP-GalNH2]","product, % of total heavy chain","β(1,4)-Gal-T1(Y289L); UDP derivative 2.5 mM, enzyme 0.68 mg/mL",approximately 5%
"O=C(NC1C(OP(=O)(O)OP(=O)(O)OCC2OC(n3ccc(=O)[nH]c3=O)C(O)C2O)OC(CO)C(O)C1O)c1ccco1 (stereo not shown) [Compound 22, Furylcarbonyl Derivative of UDP-GalNH2]","product, % of total heavy chain","β(1,4)-Gal-T1(Y289L); [1]",approximately 80%
"[N-]=[N+]=Nc1c(F)c(F)c(C(=O)N[C@H]2[C@@H](OP(=O)(O)OP(=O)(O)OC[C@H]3O[C@@H](n4ccc(=O)[nH]c4=O)[C@H](O)[C@@H]3O)O[C@H](CO)[C@H](O)[C@@H]2O)c(F)c1F [Compound 23b, 4-azido-2,3,5,6-tetrafluorobenzoyl Derivative of UDP-GalNH2]",conversion into product,"Gal-T1(Y289M,C342T)",approximately 10%
same,conversion into product,"Gal-T1(Y289L,C342T)",approximately 70%
"O=C(NC1C(OP(=O)(O)OP(=O)(O)OCC2OC(n3ccc(=O)[nH]c3=O)C(O)C2O)OC(CO)C(O)C1O)C1CCCC1 (stereo not shown) [Compound 24, Cyclopentylcarbonyl Derivative of UDP-GalNH2]","product, % of total heavy chain","β(1,4)-Gal-T1(Y289L); [1]",approximately 90%
CC(=O)N[C@H]1[C@@H](OP(=O)(O)OP(=O)(O)OC[C@H]2O[C@@H](n3ccc(=O)[nH]c3=O)[C@H](O)[C@@H]2O)O[C@H](CO)[C@H](O)[C@@H]1O [UDP-GalNAc],efficiency of GalNAc transfer compared to Gal transfer from UDP-Gal,β4Gal-T1,0.1%
same,efficiency of GalNAc transfer relative to β4Gal-T1/Gal transfer,β4Gal-T1(Y289L),~100%

# Source: patent US20170009266A1, “PROCESS FOR THE ATTACHMENT OF A GALNAC MOIETY COMPRISING A (HETERO)ARYL GROUP TO A GLCNAC MOIETY, AND PRODUCT OBTAINED THEREBY” (SYNAFFIX B.V., priority 2014, published 2017)
